Laboratory results: article PMC3261944, “The in Vitro Estrogenic Activities of Polyfluorinated Iodine Alkanes” (Environmental Health Perspectives, 2011)
Like-named read-outs stand apart in the source and are kept apart here.

Experiments:
ER = biological target: T1, ER (Homo sapiens, UniProt P03372); assay: MVLN assay (estrogen-responsive luciferase reporter transactivation); assay type: cell-based; settings: for MVLN assay Maximum induction (%): percentage of the maximum induction (luciferase) of tested compound to that of E2, 2 days exposure; for Luciferase activity on coexposure with OHT: OHT 10 nM coexposed with 100 μM PFHxI, 100 μM PFOI, 100 μM PFBDI, 20 μM PFHxDI or 40 μM PFODI; for MVLN assay Relative potency: footnote: ratio of EC50 of E2 to that of test compound, text: based on EC20; for MVLN assay EC20: luciferase activity, 2 days, from Hill slope and EC50; for Luciferase induction / estrogenic effect in the MVLN assay (in words): within the tested concentration ranges
T1 construct: This cell line was stably transfected with the luciferase reporter gene and estrogen-responsive element derived from the Xenopus vitellogenin A2 gene; endogenous in cells; host or cells: MVLN cells (provided by J.P. Giesy)
T1 sequence (P03372 1-595): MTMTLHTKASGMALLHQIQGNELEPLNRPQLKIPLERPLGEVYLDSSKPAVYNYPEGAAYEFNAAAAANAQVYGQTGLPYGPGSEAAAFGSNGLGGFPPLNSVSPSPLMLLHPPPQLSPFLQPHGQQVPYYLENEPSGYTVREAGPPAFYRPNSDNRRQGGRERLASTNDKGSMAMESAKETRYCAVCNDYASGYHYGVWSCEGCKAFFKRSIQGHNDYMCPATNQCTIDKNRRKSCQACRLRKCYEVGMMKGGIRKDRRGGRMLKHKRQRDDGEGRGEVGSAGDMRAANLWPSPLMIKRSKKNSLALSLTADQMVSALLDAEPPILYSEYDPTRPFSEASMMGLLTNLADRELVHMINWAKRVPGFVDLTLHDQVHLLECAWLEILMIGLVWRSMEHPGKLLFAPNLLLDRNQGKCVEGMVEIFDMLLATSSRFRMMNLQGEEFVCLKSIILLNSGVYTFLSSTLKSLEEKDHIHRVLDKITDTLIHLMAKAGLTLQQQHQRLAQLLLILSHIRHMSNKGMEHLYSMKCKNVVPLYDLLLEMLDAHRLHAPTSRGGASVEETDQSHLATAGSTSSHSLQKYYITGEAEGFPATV
Method: (§1) Cell culture. Human MCF-7BUS breast adenocarcinoma cells and MVLN cells were cultured in 100-mm culture dishes in a humidified atmosphere of 5% CO2 at 37°C. Cells were maintained in Dulbecco’s modified Eagle’s medium (DMEM)/F-12 (Hyclone, Logan, UT, USA) containing 10% fetal bovine serum, 100 U/mL streptomycin-penicillin, 2 mM L-glutamine, and 1% insulin-transferrin-selenium supplement (all from Gibco, Grand Island, NY, USA).
MVLN assay. The MVLN cell line was kindly provided by J.P. Giesy (Michigan State University, East Lansing, MI, USA). This cell line was stably transfected with the luciferase reporter gene and estrogen-responsive element derived from the Xenopus vitellogenin A2 gene. […] Cells were seeded in the interior 60 wells of a 96-well ViewPlate (Packard Instrument Company, Boston, MA, USA) at a density of 7 × 10^4 cells/well, starved in SF medium for 48 hr, and exposed to test compounds for 2 days. […] Luciferase activity was measured with the LucLite kit (Packard Instruments) according to the manufacturer’s protocol. We measured luminescence by microplate reader (Varioskan Flash) and integrated the luminescence signal for 10 sec. Total protein content was measured by the Bradford assay (Tiangen, Beijing, China) to normalize luminescent units. The results are given as relative luminescent unit per microgram protein. The maximal induction of positive control (corrected for solvent control, 0.1–0.2% ethanol) was set as 100%, and the responses of other chemicals were converted to a percentage of the maximum level. Three replicates were used in each experiment. The cytotoxicity of tested chemicals was examined by WST-1 kit in parallel and routinely observed under microscope to identify the exposure concentration range.
(§2) The concentration–response analyses were performed with four-parameter logistic curve regression analysis according to the following formula:
(§3) y = minimum + (maximum – minimum) ÷ [1 + (x/EC50)^Hill slope], [1]
(§4) where y is the response value, x is the log concentration of the test compound, and EC50 is the concentration that induces half of the maximum proliferation effect or luciferase activity.
EC50 values were calculated from this nonlinear regression model. EC20 were calculated as
ECx = [x/(100 – x)]^(1/Hill slope) × EC50, [2]

MCF-7BUS cells = assay: E-screen assay (MCF-7BUS cell proliferation, WST-1); assay type: cell-based, Human; settings: for E-screen Maximum induction (%): percentage of the maximum proliferation effect of tested compound to that of E2, 6 days exposure; for EC50: Homo sapiens, MCF7/BUS, 144 h, read-out: E-screen EC50; for E-screen Relative potency: ratio of EC50 of E2 to that of test compound; for Proliferation / estrogenic effect in the E-screen assay (in words): within the tested concentration ranges
Method: as §1
E-screen assay. MCF-7BUS cells were kindly provided by A.M. Soto and C. Sonnenschein (Tufts University School of Medicine, Boston, MA, USA). In response to ERα agonists, the mitotic effect leads to the proliferation of MCF-7BUS cells. […] Cells were trypsinized and plated into the interior 60 wells of 96-well plates at the density of 3,000 cells/well. Before each experiment, cells were starved in steroid-free (SF) medium for 48 hr to minimize the basal hormonal activity during assays. SF medium consisted of phenol red–free DMEM/F-12 (Hyclone) supplemented with 5% dextran-charcoal-treated fetal bovine serum (Hyclone), 100 U/mL streptomycin-penicillin, and 2 mM L-glutamine. […] We used a WST-1 proliferation kit (Roche Diagnostics, Mannheim, Germany) to assess proliferation after 6 days of exposure according to the kit instructions. The WST-1 assay is based on the enzymatic cleavage of the tetrazolium salt WST-1 to formazan by cellular mitochondrial dehydrogenases present in viable cells. The absorbance of the WST-1 solution was detected by a microplate reader (Varioskan Flash, Thermo Fisher Scientific, Waltham, MA, USA) at 450 nm, with the reference wave length at 690 nm. The cell proliferation effect was calculated from the solvent control (0.1% ethanol)-corrected absorbance and expressed as the percentage of maximal absorbance of the positive control. Three replicates were used in each experiment.
as §2, §3, §4
EC50 values were calculated from this nonlinear regression model. EC20 were calculated as […]

EGR3 = assay: Expression of estrogen-responsive gene EGR3 (quantitative RT-PCR); assay type: cell-based, Human; settings: MCF-7 cells, 48 hr, vs 0.1% ethanol; 50 μM PFBI, PFHxI, PFOI, PFBDI, PFOA, PFOC, PFOB, 1-iodohexane, 4:2 FTI, 6:2 FTI; 40 μM PFDI, PFDoI, PFODI, 8:2 FTI, 10:2 FTI; 20 μM PFHxDI; 100 pM E2
Method: RNA isolation and reverse transcription polymerase chain reaction (RT-PCR). MCF-7BUS cells were seeded in six-well plates at the density of 1.0 × 10^6 cells per well, starved in SF medium for 48 hr, and exposed to test compounds for 48 hr. First, cells were rinsed twice with cold phosphate-buffered saline, and total RNA was isolated using Trizol reagent (Invitrogen Inc., Carlsbad, CA, USA) following the manufacturer’s protocol. The 260 nm and 280 nm absorbance reading of total RNA was performed using a Nanodrop spectrophotometer (Thermo Scientific, Waltham, MA, USA). The concentration of RNA was quantified by the reading at 260 nm.
We used a two-step quantitative RT-PCR to quantify gene expression. Total RNA was converted to cDNA using M-MLV (Moloney murine leukemia virus) reverse transcriptase (Promega, Madison, WI, USA) with oligo dT(15), following the manufacturer’s instructions. The final cDNA solution was diluted five times with DNase/RNase-free water (Gibco). Quantitative PCR was performed with a Stratagene MX3005 thermal cycler (Stratagene, La Jolla, CA, USA). PCR reaction mixtures (25 μL) contained 12.5 μL GoTaq Green Master Mix (Promega), 2 μL diluted cDNA, and 0.2 μM sense/antisense primers. The thermal cycle was 5 min at 95°C, followed by 45 cycles of 15 sec at 95°C, 30 sec at 55°C, and 30 sec at 72°C. The primer sequences of early growth response protein 3 (EGR3) were derived from [Terasaka et al. (2004)]. We designed the primers of internal gene β-actin and trefoil factor 1 (TFF1; pS2) with Primer Premier 5 software (Premier Biosoft International, Palo Alto, CA, USA). The primer sequences were as follows: for β-actin (NM_001101), 5´-CACTCT[…]TCCTTCC-3´ (forward) and 5´-[…][…]-3´ (reverse); for EGR3 (NM_004430), 5´-CCATGATTC[…]-3´ (forward) and 5´-GTGGATCTGCTTGTCTTTGAATG-3´ (reverse); and for TFF1 (NM_003225), 5´-AGAAGCG […]-3´ (forward) and 5´-[…][…]-3´ (reverse). The quantification of target gene expression was based on a comparative cycle threshold (Ct) value. We normalized the expression level of each target gene to its reference gene β-actin. The fold change of the target genes was analyzed by the 2^−ΔΔCt method ([Livak and Schmittgen 2001]). We used melting curve analysis and agarose gel electrophoresis to verify the correct PCR products.

| SMILES | MVLN assay Maximum induction (%) (ER) | E-screen Maximum induction (%) (MCF-7BUS cells) | EC50 (MCF-7BUS cells; MCF-7BUS proliferation, 6 days) [nM] | EC50 (ER) [nM] | Luciferase activity on coexposure with OHT (ER) | MVLN assay Relative potency (ER) | MVLN assay EC20 (ER) [nM] | EC50 (MCF-7BUS cells) [nM] | E-screen Relative potency (MCF-7BUS cells) | EGR3 mRNA expression, fold up-regulation (EGR3) [fold] | Luciferase induction / estrogenic effect in the MVLN assay (in words) (ER) | Proliferation / estrogenic effect in the E-screen assay (in words) (MCF-7BUS cells) |
| --- | --- | --- | --- | --- | --- | --- | --- | --- | --- | --- | --- | --- |
| FC(F)(F)C(F)(F)C(F)(F)C(F)(F)CCI [4:2 FTI, 1H,1H,2H,2H-perfluorohexyl iodide] | NDe (The maximum relative luciferase activity was < 5%) | NDd (The maximum relative proliferation effect was < 7%) |  |  |  |  |  |  |  |  |  |  |
| FC(F)(F)C(F)(F)C(F)(F)C(F)(F)C(F)(F)C(F)(F)CCI [6:2 FTI, 1H,1H,2H,2H-perfluorooctyl iodide] | NDe (The maximum relative luciferase activity was < 5%) | NDd (The maximum relative proliferation effect was < 7%) |  |  |  |  |  |  |  |  |  |  |
| FC(F)(F)C(F)(F)C(F)(F)C(F)(F)C(F)(F)C(F)(F)C(F)(F)C(F)(F)CCI [8:2 FTI, 1H,1H,2H,2H-perfluorodecyl iodide] | NDe (The maximum relative luciferase activity was < 5%) | NDd (The maximum relative proliferation effect was < 7%) |  |  |  |  |  |  |  |  |  |  |
| FC(F)(F)C(F)(F)C(F)(F)C(F)(F)C(F)(F)C(F)(F)C(F)(F)C(F)(F)C(F)(F)C(F)(F)CCI [10:2 FTI, 1H,1H,2H,2H-perfluorododecyl iodide] | NDe (The maximum relative luciferase activity was < 5%) | NDd (The maximum relative proliferation effect was < 7%) |  |  |  |  |  |  |  |  |  |  |
| C[C@]12CC[C@@H]3c4ccc(O)cc4CC[C@H]3[C@@H]1CC[C@@H]2O [E2, 17β-estradiol, reference compound] |  | 100% | 0.00312 |  |  |  |  |  |  |  |  |  |
| FC(F)(I)C(F)(F)C(F)(F)C(F)(F)I [PFBDI, Octafluoro-1,4-diiodobutane] | 21% | 97% |  | 29600 | marked reduction of luciferase activity | 0.3 × 10^–6 | 13800 | 1450 | 2.2 × 10^–6 | 2.4 |  |  |
| FC(F)(I)C(F)(F)C(F)(F)C(F)(F)C(F)(F)C(F)(F)I [PFHxDI, Dodecafluoro-1,6-diiodohexane] | 73% | 100% |  | 1130 | marked reduction of luciferase activity | 1.1 × 10^–5 | 380 | 7.5 | 4.2 × 10^–4 | 9.1 |  |  |
| FC(F)(F)C(F)(F)C(F)(F)C(F)(F)C(F)(F)C(F)(F)I [PFHxI, 1-iodoperfluorohexane] | 47% | 99% |  | 26700 | marked reduction of luciferase activity | 0.29 × 10^–6 | 14100 | 630 | 4.9 × 10^–6 | 2.4 | induced luciferase activity in a dose-related manner | produced full concentration–response curves |
| FC(F)(I)C(F)(F)C(F)(F)C(F)(F)C(F)(F)C(F)(F)C(F)(F)C(F)(F)I [PFODI, Hexadecafluoro-1,8-diiodooctane] | 38% | 105% |  | 2870 | marked reduction of luciferase activity | 3.8 × 10^–6 | 1070 | 43.3 | 7.2 × 10^–5 | 11.2 |  |  |
| FC(F)(F)C(F)(F)C(F)(F)C(F)(F)C(F)(F)C(F)(F)C(F)(F)C(F)(F)I [PFOI, 1-iodoperfluorooctane] | 25% | 101% |  | 35100 | marked reduction of luciferase activity | 0.2 × 10^–6 | 20400 | 1150 | 2.7 × 10^–6 | 3.6 | induced luciferase activity in a dose-related manner | produced full concentration–response curves |
